Here are results for four compounds from US9474790B2, “Stable, protracted GLP-1/glucagon receptor co-agonists for medical use” (Novo Nordisk A/S, priority 2013, dated 2016).

Numbered stars: 1 amine (or outer) side, 2 acyl side, 3 side chain; on linkers, the order of the positions; unused ones are H or OH. Bridge positions count the residues as written; N and C are the ends. Square brackets hold non-standard residues; d marks the D form. Side chains are listed from the residue outwards. Peptide text beside a SMILES is read from it. I, II: the chains in the order shown. * marks the point of attachment. C18 diacid = O=C(O)CCCCCCCCCCCCCCCCC(=O)*; γGlu = O=C(O)[C@H](CCC(=O)[*:2])N[*:1]; Ac4c = NC1(C(=O)O)CCC1; AEEA = NCCOCCOCC(=O)O; Aib = CC(C)(N)C(=O)O

This data set can be described thus: Thioflavin T (ThT) fibrillation assay for physical stability. In kind it is physicochemical. The conditions noted are these: 250 μM in 10 mM HEPES buffer, pH 7.5, 37° C., shaking 960 rpm. The essentials: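 Peptide at 250 μM in 10 mM HEPES pH 7.5 with 1 μM ThT, at 37° C with 960 rpm orbital shaking. Fluorescence (ex 444/em 485 nm) read every 20 min after 10 min pre-incubation; sigmoidal fit gives lag time (t0−2τ) and kapp (1/τ). Recovery is RP-HPLC peptide in the centrifuged, 0.22 μm-filtered supernatant as % of initial.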
The compound `CC(C)C[C@H](NC(=O)[C@H](CC(C)C)NC(=O)[C@H](Cc1c[nH]c2ccccc12)NC(=O)[C@H](CCC(N)=O)NC(=O)[C@@H](NC(=O)[C@H](Cc1ccccc1)NC(=O)[C@H](CCC(=O)O)NC(=O)[C@H](CCC(N)=O)NC(=O)[C@H](C)NC(=O)[C@H](C)NC(=O)[C@H](CCCCN)NC(=O)[C@H](CO)NC(=O)[C@H](CC(=O)O)NC(=O)[C@H](CC(C)C)NC(=O)[C@H](Cc1ccc(O)cc1)NC(=O)[C@H](CCCCN)NC(=O)[C@H](CO)NC(=O)[C@H](CC(C)C)NC(=O)[C@H](CC(=O)O)NC(=O)[C@H](CO)NC(=O)[C@@H](NC(=O)[C@H](Cc1ccccc1)NC(=O)[C@@H](NC(=O)CNC(=O)[C@H](CCC(N)=O)NC(=O)C(C)(C)NC(=O)[C@@H](N)Cc1c[nH]cn1)[C@@H](C)O)[C@@H](C)O)C(C)C)C(=O)N[C@@H](CC(N)=O)C(=O)N[C@@H](CCCCNC(=O)CC[C@H](NC(=O)CC[C@H](NC(=O)COCCOCCNC(=O)COCCOCCNC(=O)CC[C@H](NC(=O)CCCCCCCCCCCCCCCCC(=O)O)C(=O)O)C(=O)O)C(=O)O)C(N)=O` [Example 8, N^ε29-[(4S)-4-carboxy-4-[[(4S)-4-carboxy-4-[[2-[2-[2-[[2-[2-[2-[[(4S)-4-carboxy-4-(17-carboxyheptadecanoylamino)butanoyl]amino]ethoxy]ethoxy]acetyl]amino]ethoxy]ethoxy]acetyl]amino]butanoyl]amino]butanoyl]-[Aib2,Leu10,Lys17,Ala18,Glu21,Leu27,Lys29]-Glucagon amide] (H-H[Aib]QGTFTSDLSKYLDSKAAQEFVQWLLNK([γGlu-γGlu-AEEA-AEEA-γGlu-C18 diacid])-NH2; N-terminus assumed) gave a THT assay Lag time (Ex. 76) of 45 h.

The compound `CC(C)C[C@H](NC(=O)[C@H](Cc1ccc(O)cc1)NC(=O)[C@H](CCCCN)NC(=O)[C@H](CO)NC(=O)[C@H](CC(C)C)NC(=O)[C@H](CC(=O)O)NC(=O)[C@H](CO)NC(=O)[C@@H](NC(=O)[C@H](Cc1ccccc1)NC(=O)[C@@H](NC(=O)CNC(=O)[C@H](CCC(N)=O)NC(=O)C(C)(C)NC(=O)[C@@H](N)Cc1c[nH]cn1)[C@@H](C)O)[C@@H](C)O)C(=O)N[C@@H](CC(=O)O)C(=O)N[C@@H](CCCCNC(=O)CC[C@H](NC(=O)CC[C@H](NC(=O)COCCOCCNC(=O)COCCOCCNC(=O)CC[C@H](NC(=O)CCCCCCCCCCCCCCCCC(=O)O)C(=O)O)C(=O)O)C(=O)O)C(=O)N[C@@H](CCCNC(=N)N)C(=O)N[C@@H](CCCNC(=N)N)C(=O)N[C@@H](C)C(=O)N[C@@H](CCCNC(=N)N)C(=O)N[C@@H](CCC(=O)O)C(=O)N[C@@H](Cc1ccccc1)C(=O)N[C@H](C(=O)N[C@@H](CCC(N)=O)C(=O)N[C@@H](Cc1c[nH]c2ccccc12)C(=O)N[C@@H](CC(C)C)C(=O)N[C@@H](CC(C)C)C(=O)N[C@@H](CC(N)=O)C(=O)N[C@H](C(N)=O)[C@@H](C)O)C(C)C` [Example 10, N^ε16-[(4S)-4-carboxy-4-[[(4S)-4-carboxy-4-[[2-[2-[2-[[2-[2-[2-[[(4S)-4-carboxy-4-(17-carboxyheptadecanoylamino)butanoyl]amino]ethoxy]ethoxy]acetyl]amino]ethoxy]ethoxy]acetyl]amino]butanoyl]amino]butanoyl]-[Aib2,Leu10,Lys16,Arg20,Glu21,Leu27]-Glucagon amide] (H-H[Aib]QGTFTSDLSKYLDK([γGlu-γGlu-AEEA-AEEA-γGlu-C18 diacid])RRAREFVQWLLNT-NH2; N-terminus assumed) showed a THT assay Lag time (Ex. 76) of 7 h.

Regarding `CC(C)C[C@H](NC(=O)[C@H](CC(C)C)NC(=O)[C@H](Cc1c[nH]c2ccccc12)NC(=O)[C@H](CCC(N)=O)NC(=O)[C@@H](NC(=O)[C@H](Cc1ccccc1)NC(=O)[C@H](CCC(=O)O)NC(=O)[C@H](CCCNC(=N)N)NC(=O)[C@H](C)NC(=O)[C@H](CCCNC(=N)N)NC(=O)[C@H](CCCNC(=N)N)NC(=O)[C@H](CO)NC(=O)[C@H](CC(=O)O)NC(=O)[C@H](CC(C)C)NC(=O)[C@H](Cc1ccc(O)cc1)NC(=O)[C@H](CCCCN)NC(=O)[C@H](CO)NC(=O)[C@H](CC(C)C)NC(=O)[C@H](CC(=O)O)NC(=O)[C@H](CO)NC(=O)[C@@H](NC(=O)[C@H](Cc1ccccc1)NC(=O)[C@@H](NC(=O)CNC(=O)[C@H](CCC(N)=O)NC(=O)C(C)(C)NC(=O)[C@@H](N)Cc1c[nH]cn1)[C@@H](C)O)[C@@H](C)O)C(C)C)C(=O)N[C@@H](CC(N)=O)C(=O)N[C@@H](CCCCNC(=O)CC[C@H](NC(=O)CC[C@H](NC(=O)COCCOCCNC(=O)COCCOCCNC(=O)CC[C@H](NC(=O)CCCCCCCCCCCCCCCCC(=O)O)C(=O)O)C(=O)O)C(=O)O)C(N)=O` [Example 12, N^ε29-[(4S)-4-carboxy-4-[[(4S)-4-carboxy-4-[[2-[2-[2-[[2-[2-[2-[[(4S)-4-carboxy-4-(17-carboxyheptadecanoylamino)butanoyl]amino]ethoxy]ethoxy]acetyl]amino]ethoxy]ethoxy]acetyl]amino]butanoyl]amino]butanoyl]-[Aib2,Leu10,Arg20,Glu21,Leu27,Lys29]-Glucagon amide] (H-H[Aib]QGTFTSDLSKYLDSRRAREFVQWLLNK([γGlu-γGlu-AEEA-AEEA-γGlu-C18 diacid])-NH2), the THT assay Lag time (Ex. 76) is 45 h.

For the compound `CC(C)C[C@H](NC(=O)[C@H](Cc1ccc(O)cc1)NC(=O)[C@H](CCCCN)NC(=O)[C@H](CO)NC(=O)[C@H](CC(C)C)NC(=O)[C@H](CC(=O)O)NC(=O)[C@H](CO)NC(=O)[C@@H](NC(=O)[C@H](Cc1ccccc1)NC(=O)[C@@H](NC(=O)CNC(=O)[C@H](CCC(N)=O)NC(=O)C1(NC(=O)[C@@H](N)Cc2c[nH]cn2)CCC1)[C@@H](C)O)[C@@H](C)O)C(=O)N[C@@H](CCC(=O)O)C(=O)N[C@@H](CCC(=O)O)C(=O)N[C@@H](CCCNC(=N)N)C(=O)N[C@@H](CCCNC(=N)N)C(=O)N[C@@H](C)C(=O)N[C@@H](CCCNC(=N)N)C(=O)N[C@@H](CC(=O)O)C(=O)N[C@@H](Cc1ccccc1)C(=O)N[C@H](C(=O)N[C@@H](CCC(N)=O)C(=O)N[C@@H](Cc1c[nH]c2ccccc12)C(=O)N[C@@H](CC(C)C)C(=O)N[C@@H](CC(C)C)C(=O)N[C@@H](CCCCNC(=O)CNC(=O)[C@H](CO)NC(=O)[C@H](CCC(=O)O)NC(=O)CNC(=O)[C@H](CO)NC(=O)CC[C@H](NC(=O)CC[C@H](NC(=O)CCCCCCCCCCCCCCCCC(=O)O)C(=O)O)C(=O)O)C(=O)N[C@H](C(N)=O)[C@@H](C)O)C(C)C` [Example 16, N^ε28-[2-[[(2S)-2-[[(2S)-4-carboxy-2-[[2-[[(2S)-2-[[(4S)-4-carboxy-4-[[(4S)-4-carboxy-4-(17-carboxyheptadecanoylamino)butanoyl]amino]butanoyl]amino]-3-hydroxypropanoyl]amino]acetyl]amino]butanoyl]amino]-3-hydroxypropanoyl]amino]acetyl]-[Acb2,Leu10,Glu15,Glu16,Arg20,Leu27,Lys28]-Glucagon amide] (I: H-H[Ac4c]QGTFTSDLSKYLEERRARDFVQWLLKT-NH2 / II: {C18 diacid-γGlu-γGlu}-SGESG; amide I:28-II:C; N-terminus assumed), the THT assay Lag time (Ex. 76) was 45 h.
